Test results from paper doi:10.1101/2020.06.11.145995v1 (biorxiv, 2020).

What was measured:
Test in all cases: biochemical
Settings in all cases: read-out: CPT-1-70-1 (1μM) % control
PFPK5(P.falciparum) = PFPK5(P.falciparum) (Plasmodium falciparum, UniProt P61075)
[1] = molecular target: ABL1(E255K)-phosphorylated (Homo sapiens, UniProt P00519, E255K)
PFCDPK1(P.falciparum) = PFCDPK1(P.falciparum) (Plasmodium falciparum, UniProt P62344)
PKNB(M.tuberculosis) = PKNB(M.tuberculosis) (Mycobacterium tuberculosis, UniProt P9WI81)
Chain of PKNB(M.tuberculosis) (P9WI81 whole entry): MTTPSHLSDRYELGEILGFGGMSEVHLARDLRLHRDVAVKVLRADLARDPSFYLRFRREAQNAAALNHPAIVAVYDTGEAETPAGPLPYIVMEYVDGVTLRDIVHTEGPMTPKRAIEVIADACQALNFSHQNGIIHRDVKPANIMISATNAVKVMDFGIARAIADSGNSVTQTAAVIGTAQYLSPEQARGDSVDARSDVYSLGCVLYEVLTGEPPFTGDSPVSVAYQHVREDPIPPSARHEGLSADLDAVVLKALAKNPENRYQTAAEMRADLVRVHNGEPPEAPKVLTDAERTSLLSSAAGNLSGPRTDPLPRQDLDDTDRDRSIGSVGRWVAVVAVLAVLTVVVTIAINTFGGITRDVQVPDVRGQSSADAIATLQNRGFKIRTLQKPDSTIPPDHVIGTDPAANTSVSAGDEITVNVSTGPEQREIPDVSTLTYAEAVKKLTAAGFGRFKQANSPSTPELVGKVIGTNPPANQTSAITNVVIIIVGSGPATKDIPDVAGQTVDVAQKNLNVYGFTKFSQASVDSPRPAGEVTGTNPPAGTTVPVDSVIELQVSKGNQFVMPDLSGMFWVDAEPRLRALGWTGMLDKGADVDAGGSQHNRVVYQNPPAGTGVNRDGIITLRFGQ

Chain of PFPK5(P.falciparum) (P61075 whole entry): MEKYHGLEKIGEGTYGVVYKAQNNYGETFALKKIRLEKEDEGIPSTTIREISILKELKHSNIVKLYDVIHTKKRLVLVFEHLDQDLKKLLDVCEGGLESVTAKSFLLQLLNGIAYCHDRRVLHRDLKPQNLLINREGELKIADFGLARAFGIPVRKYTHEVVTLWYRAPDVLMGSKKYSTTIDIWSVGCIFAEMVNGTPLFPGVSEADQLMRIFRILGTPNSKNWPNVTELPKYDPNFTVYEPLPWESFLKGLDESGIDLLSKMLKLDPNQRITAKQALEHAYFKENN
Chain of PFCDPK1(P.falciparum) (P62344 whole entry): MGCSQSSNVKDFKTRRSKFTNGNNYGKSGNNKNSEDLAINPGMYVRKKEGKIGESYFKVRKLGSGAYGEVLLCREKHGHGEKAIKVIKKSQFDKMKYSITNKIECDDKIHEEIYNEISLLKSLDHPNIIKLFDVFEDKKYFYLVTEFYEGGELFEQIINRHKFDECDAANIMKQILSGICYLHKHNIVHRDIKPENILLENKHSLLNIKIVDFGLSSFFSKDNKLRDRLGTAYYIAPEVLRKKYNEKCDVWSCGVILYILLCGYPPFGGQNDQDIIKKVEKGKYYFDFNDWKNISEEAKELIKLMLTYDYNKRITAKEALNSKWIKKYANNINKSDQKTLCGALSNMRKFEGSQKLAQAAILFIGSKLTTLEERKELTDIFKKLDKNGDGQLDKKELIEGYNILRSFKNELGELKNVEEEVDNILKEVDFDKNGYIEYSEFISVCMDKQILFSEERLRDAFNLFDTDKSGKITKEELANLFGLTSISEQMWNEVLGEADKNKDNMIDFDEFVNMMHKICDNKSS
Chain of ABL1(E255K)-phosphorylated (P00519 whole entry E255K): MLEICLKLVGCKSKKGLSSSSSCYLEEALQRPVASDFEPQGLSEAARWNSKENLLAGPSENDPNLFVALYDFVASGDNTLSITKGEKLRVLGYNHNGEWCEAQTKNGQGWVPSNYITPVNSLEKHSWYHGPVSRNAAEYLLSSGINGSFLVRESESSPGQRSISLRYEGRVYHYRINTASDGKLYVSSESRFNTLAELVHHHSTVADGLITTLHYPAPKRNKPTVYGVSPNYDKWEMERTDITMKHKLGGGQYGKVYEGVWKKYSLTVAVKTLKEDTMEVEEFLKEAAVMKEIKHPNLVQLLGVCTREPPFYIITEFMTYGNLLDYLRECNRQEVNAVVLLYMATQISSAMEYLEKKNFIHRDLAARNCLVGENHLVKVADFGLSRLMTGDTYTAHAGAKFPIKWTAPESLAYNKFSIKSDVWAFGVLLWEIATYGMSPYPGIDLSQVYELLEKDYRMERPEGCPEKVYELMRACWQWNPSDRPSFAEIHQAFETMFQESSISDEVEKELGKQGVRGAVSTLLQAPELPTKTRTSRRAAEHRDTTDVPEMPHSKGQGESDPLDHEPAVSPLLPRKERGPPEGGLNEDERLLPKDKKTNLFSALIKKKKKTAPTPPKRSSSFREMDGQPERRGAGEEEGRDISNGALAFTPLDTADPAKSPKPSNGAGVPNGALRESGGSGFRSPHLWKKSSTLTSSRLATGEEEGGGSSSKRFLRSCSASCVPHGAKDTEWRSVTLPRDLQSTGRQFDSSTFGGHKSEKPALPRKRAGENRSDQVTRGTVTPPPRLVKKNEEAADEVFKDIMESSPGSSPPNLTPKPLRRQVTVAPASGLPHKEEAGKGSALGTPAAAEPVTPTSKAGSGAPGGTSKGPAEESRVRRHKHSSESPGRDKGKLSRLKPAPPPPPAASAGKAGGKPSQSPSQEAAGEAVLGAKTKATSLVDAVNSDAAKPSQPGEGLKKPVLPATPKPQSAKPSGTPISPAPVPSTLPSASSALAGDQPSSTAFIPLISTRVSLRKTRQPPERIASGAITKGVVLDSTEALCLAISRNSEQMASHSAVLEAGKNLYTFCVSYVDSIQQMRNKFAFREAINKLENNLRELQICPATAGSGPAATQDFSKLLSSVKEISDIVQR

## CN1CCN(c2ccc(Nc3nc(Oc4ccc(NC(=O)CCl)cc4)c4cc[nH]c4n3)cc2)CC1 [CPT1-70-1]
PFPK5(P.falciparum)
  remaining activity at 1 µM: 100%
[1]
  remaining activity at 1 µM: 90%
PFCDPK1(P.falciparum)
  remaining activity at 1 µM: 100%
PKNB(M.tuberculosis)
  remaining activity at 1 µM: 58%
